In patent US11518742B2 (priority 2020, dated 2022):
Where two headings read alike, the source gives them in different places.

Key:
[1] = Controlled cooling crystallisation: solubility in minimal solvent at 50 °C; format: physicochemical
Description: (detailed in the Table below). The solutions were clarified through a 0.45 μm Teflon syringe filter into pre-heated crystallisation tubes and cooled from 50° C. to −10° C. over 60 hours (1° C. Hr-1 cooling rate) and held at −10° C. for 50 hours (no agitation).
Solutions were clarified into crystallisation tubes at 50° C. and were cooled to −10° C. at a rate of 10° C.·hr-1, then equilibrated at −10° C. for 12 hours, then agitated at −10° C. at 400 rpm for 30 minutes which afforded a mobile suspension for all samples except Sample I which remained a solution. Further equilibration with agitation at −10° C. at 400 rpm for 3 hours afforded a thin suspension. All samples were isolated via isolute cartridge and air dried for 5 minutes before characterisation.

[2] = Competitive equilibration of Pattern A, B and C forms in solvents; format: physicochemical; conditions: suspension in 0.5 ml solvent agitated 24 hours; AB = Pattern A 15 mg + Pattern B 30 mg, AC = Pattern A 15 mg + Pattern C 30 mg; 1 IPA, 2 toluene, 3 iPrOAc, 4 MeCN, 5 MEK, 6 2-MeTHF
Description: Solvent, 0.5 ml, was charged to crystallisation tubes as detailed in the Table below. Suspensions were agitated at 100 rpm at […] for 24 hours. Suspensions were isolated via isolute cartridge and air dried for 5 minutes and characterised by XRPD and DSC.

[3] = test system: Slugs (Arion lusitanicus); format: in vivo
Description: The Slug Mucosal Irritation (SMI) assay was initially developed at the Laboratory of Pharmaceutical Technology (UGent) to predict the mucosal irritation potency of pharmaceutical formulations and ingredients. The test utilizes the terrestrial slug Arion lusitanicus. The body wall of the slugs is a mucosal surface composed of different layers.
The outer single-layered columnar epithelium that contains cells with cilia, cells with micro-villi and mucus secreting cells covers the subepithelial connective tissue. Slugs that are placed on an irritating substance will produce mucus. Additionally tissue damage can be induced which results in the release of proteins and enzymes from the mucosal surface. […] A classification prediction model that distinguishes between irritation (mucus production) and tissue damage (release of proteins and enzymes) has been developed. […] A 5% shampoo dilution or artificial tears were instilled in the eye and the discomfort was scored by the participants on a 5 point scale during several time points up to 30 min after instillation. The same shampoos were tested in the SMI assay using the Stinging, Itching and Burning (SIB) protocol.
The purpose of this assay was to assess the stinging, itching or burning potential of the test item(s) defined below. Using the objective values obtained for the mucus production the stinging, itching or burning potential of the test item(s) can be estimated by means of the prediction model that is composed of four categories (no, mild, moderate and severe).
Test System: Slugs (Arion lusitanicus); 3 slugs per treatment group. The parental slugs of Arion lusitanicus collected in local gardens along Gent and Aalter (Belgium) are bred in the laboratory in an acclimatized room (18-20° C.). The slugs are housed in plastic containers and fed with lettuce, cucumber, carrots and commercial dog food.
Test Design: A single study was performed.
Slugs weighing between 3 and 6 g were isolated from the cultures two days before the start of an experiment. The body wall was inspected carefully for evidence of macroscopic injuries. […] The slugs were placed in a plastic box lined with paper towel moistened with PBS and were kept at 18-20° C. Daily the body wall of the slugs was wetted with 300 μl PBS using a micropipette.
An overview of this can be seen in FIG. 4.
The mucus production was expressed as % of the body weight.
Based on the endpoint of the SMI assay the stinging, itching or burning potency of the test item(s) was estimated using a classification prediction model.
The evaluation of the test results was based upon the total amount of mucus production during 3 repeated contact periods with the test item.
For each slug, the mucus production was expressed in % of the body weight by dividing the weight of the mucus produced during each contact period by the body weight of the slug before the start of that contact period. The total mucus was calculated for each slug and then the mean per treatment group was calculated. The classification prediction model shown in Table 1 was used to classify the compounds.

[4] = test system: Slugs (Arion lusitanicus); assay: SMI assay, historical data (30-min / 60-min contact periods); format: in vivo; conditions: for Total MP (% body weight): treatment time 60-min; for CP1 60-min, amount of mucus produced: Table 6; for CP1 60-min, amount of mucus produced / CP1 30-min, amount of mucus produced / CP2 30-min, amount of mucus produced / Day 1 CP1 60-min, amount of mucus produced / Day 2 CP2 60-min, amount of mucus produced / Total MP: historical data; for Ranking of salts by SIB reactions: comparison of 60-min historical data with SIB protocol data; for CP1 30-min, amount of mucus produced / CP2 30-min, amount of mucus produced: Table 4 (Code 00E04); for Day 1 CP1 60-min, amount of mucus produced / Day 2 CP2 60-min, amount of mucus produced: Table 5; for Day 1 CP1 60-min, amount of mucus produced: 1% in CP1; for Day 2 CP2 60-min, amount of mucus produced: 3.5% in CP2
[5] = Concentration 10%, treatment time 45-min (3× 15-min)
[6] = Table 2, stinging, itching and burning
[7] = Table 3, stinging, itching and burning

COc1ccc2[nH]cc(CCN(C)C)c2c1.O=C(O)c1ccccc1 [5MeODMT benzoate lot 20/20/150FP2]
Solubility mg · ml^−1 at ° C. ([1]; 2-Chlorotoluene, at 80 °C (suspension at 12.5 mg·ml-1 at 50 °C), cryst. tube K): 12.5 at 80 mg · ml^−1 | Solubility mg · ml^−1 at ° C. ([1]; 4-Methyl-2-pentanone, at 50 °C, cryst. tube H, minimal solvent for clear solution): 25 at 50 mg · ml^−1 | Solubility mg · ml^−1 at ° C. ([1]; Cumene, at 80 °C (suspension at 12.5 mg·ml-1 at 50 °C), cryst. tube I): 12.5 at 80 mg · ml^−1 | Solubility mg · ml^−1 at ° C. ([1]; Ethyl formate, at 50 °C, cryst. tube E, minimal solvent for clear solution): 40 at 50 mg · ml^−1 | Solubility mg · ml^−1 at ° C. ([1]; Iso-Butyl acetate, at 50 °C, cryst. tube D, minimal solvent for clear solution): 12.5 at 50 mg · ml^−1 | Solubility mg · ml^−1 at ° C. ([1]; Iso-Propyl acetate, at 50 °C, cryst. tube C, minimal solvent for clear solution): 16.7 at 50 mg · ml^−1 | Solubility mg · ml^−1 at ° C. ([1]; Methyl acetate, at 50 °C, cryst. tube A, minimal solvent for clear solution): 33.3 at 50 mg · ml^−1 | Solubility mg · ml^−1 at ° C. ([1]; Methyl benzoate, at 50 °C, cryst. tube F, minimal solvent for clear solution): 50 at 50 mg · ml^−1 | Solubility mg · ml^−1 at ° C. ([1]; Methyl propionate, at 50 °C, cryst. tube G, minimal solvent for clear solution): 40 at 50 mg · ml^−1 | Solubility mg · ml^−1 at ° C. ([1]; Toluene, at 80 °C (suspension at 12.5 mg·ml-1 at 50 °C), cryst. tube J): 12.5 at 80 mg · ml^−1 | Solubility mg · ml^−1 at ° C. ([1]; n-Propyl acetate, at 50 °C, cryst. tube B, minimal solvent for clear solution): 20 at 50 mg · ml^−1 | Solubility mg · ml^−1 at ° C. ([1]; α,α,α-Trifluorotoluene, at 80 °C (suspension at 12.5 mg·ml-1 at 50 °C), cryst. tube L): 12.5 at 80 mg · ml^−1

COc1ccc2[nH]cc(CCN(C)C)c2c1.O=C(O)c1ccccc1 [AB1]
Summary of solid form characterisation, DSC endotherm [2]: Endotherm at 124 °C | Summary of solid form characterisation, XRPD [2]: Pattern A

COc1ccc2[nH]cc(CCN(C)C)c2c1.O=C(O)c1ccccc1 [AB2]
Summary of solid form characterisation, DSC endotherm [2]: Endotherm at 122 °C | Summary of solid form characterisation, XRPD [2]: Pattern C

COc1ccc2[nH]cc(CCN(C)C)c2c1.O=C(O)c1ccccc1 [AB3]
Summary of solid form characterisation, XRPD [2]: Pattern A

COc1ccc2[nH]cc(CCN(C)C)c2c1.O=C(O)c1ccccc1 [AB4]
Summary of solid form characterisation, DSC endotherm [2]: Endotherm at 124 °C | Summary of solid form characterisation, XRPD [2]: Pattern A

COc1ccc2[nH]cc(CCN(C)C)c2c1.O=C(O)c1ccccc1 [AB5]
Summary of solid form characterisation, DSC endotherm [2]: Endotherm at 124 °C | Summary of solid form characterisation, XRPD [2]: Pattern A

COc1ccc2[nH]cc(CCN(C)C)c2c1.O=C(O)c1ccccc1 [AB6]
Summary of solid form characterisation, DSC endotherm [2]: Endotherm at 124 °C | Summary of solid form characterisation, XRPD [2]: Pattern A

COc1ccc2[nH]cc(CCN(C)C)c2c1.O=C(O)c1ccccc1 [AC1]
Summary of solid form characterisation, DSC endotherm [2]: Endotherm at 124 °C | Summary of solid form characterisation, XRPD [2]: Pattern A

COc1ccc2[nH]cc(CCN(C)C)c2c1.O=C(O)c1ccccc1 [AC2]
Summary of solid form characterisation, DSC endotherm [2]: Endotherm at 123 °C + | Summary of solid form characterisation, XRPD [2]: Pattern C

COc1ccc2[nH]cc(CCN(C)C)c2c1.O=C(O)c1ccccc1 [AC4]
Summary of solid form characterisation, DSC endotherm [2]: Endotherm at 124 °C | Summary of solid form characterisation, XRPD [2]: Pattern A

O=C([O-])/C=C/C(=O)[O-].[Na+].[Na+] [Disodium fumarate, 10%, Disodium fumarate]
Total MP (% body weight) [3, 5]: 13.3 % body weight | SIB Category [3, 6]: Moderate (Moderate: 10% ≤ total MP < 17.5%) | SIB Category [3, 7]: Moderate (Moderate: 10% ≤ total MP < 17.5%) | MP CP1 (%) ([3]; mucus produced, first 15-min contact period, mean ± SD, n = 3): 5.0 ± 2.5%

CC(=O)[O-].[Na+] [Sodium acetate, 10%, Sodium acetate]
SIB Category ([3]; in vivo): Moderate (key: No: total MP < 5.5%; Mild: 5.5% ≤ total MP < 10%; Moderate: 10% ≤ total MP < 17.5%; Severe: total MP ≥ 17.5%) | Total MP (% body weight) ([3]; in vivo): 11.0 % body weight

O=C([O-])c1ccccc1.[Na+] [Sodium benzoate]
Total MP (% body weight) ([4]; Concentration 1%): 2.6 % body weight | Total MP (% body weight) ([4]; Concentration 10%): 6.9 % body weight | CP1 60-min, amount of mucus produced ([4]; listed as Sodium benzoate (1%)): 2.6 ± 0.3 | CP1 60-min, amount of mucus produced ([4]; listed as Sodium benzoate (10%)): 6.9 ± 1.2 | Ranking of salts by SIB reactions [4]: least irritating salt

O=C([O-])CC(O)(CC(=O)[O-])C(=O)[O-].[Na+].[Na+].[Na+] [Sodium citrate, 10%, Sodium citrate]
Total MP (% body weight) [3, 5]: 12.5 % body weight | SIB Category [3, 6]: Moderate (Moderate: 10% ≤ total MP < 17.5%) | SIB Category [3, 7]: Moderate (Moderate: 10% ≤ total MP < 17.5%)

O=C([O-])C(=O)[O-].[Na+].[Na+] [Sodium oxalate]
Total MP (% body weight) ([4]; Concentration 1%): 11.2 % body weight | CP1 30-min, amount of mucus produced [4]: 4.5 ± 1.3 | CP2 30-min, amount of mucus produced [4]: 6.6 ± 1.0 | Day 1 CP1 60-min, amount of mucus produced [4]: 11.2 ± 3.9 | Day 2 CP2 60-min, amount of mucus produced [4]: 16.0 ± 4.0 | Ranking of salts by SIB reactions [4]: most irritating salt

O=P([O-])(O)O.[Na+] [Sodium phosphate, 10% monobasic, Sodium phosphate monobasic]
Total MP (% body weight) [3, 5]: 15.2 % body weight | SIB Category [3, 6]: Moderate (Moderate: 10% ≤ total MP < 17.5%) | SIB Category [3, 7]: Moderate (Moderate: 10% ≤ total MP < 17.5%)

Benzalkonium chloride [PC - 1% BAC]
CP1 30-min, amount of mucus produced [4]: 13.2 ± 4.2 | CP2 30-min, amount of mucus produced [4]: 18.6 ± 9.8 | Total MP ([4]; Table 4, 2 x 30-min contact periods): 31.8 ± 12.6 | Total MP ([4]; Table 5, 2 x 60-min contact periods): 31.6 ± 2.5 | Day 1 CP1 60-min, amount of mucus produced [4]: 21.9 ± 4.8 | Day 2 CP2 60-min, amount of mucus produced [4]: 9.7 ± 3.2 | CP1 60-min, amount of mucus produced [4]: 15.0 ± 1.9
